Source: patent publication US6241965A, “Somatostatin derivatives and their radiolabelled products” (Diatide, Inc., priority 1996, dated 2001)
Starred links: 1 amine or outer side, 2 acyl side, 3 side chain; linkers in the order of their positions; H or OH if unused. Positions of bridges follow the written chain, without caps; N, C: chain ends. Non-standard residues stand in square brackets, D forms with d. Residues, ends and D or L forms follow the SMILES beside them. Chains are numbered I, II in the order given. *: point of attachment. DTPA = O=C(O)CN(CCN(CC(=O)O)CC(=O)O)CCN(CC(=O)O)CC(=O)*; X1 = O=C(C(=O)*)[C@@H](O)[C@H](O)[C@@H](O)CO; Phe(4-Cl) = N[C@@H](Cc1ccc(Cl)cc1)C(=O)O; 2Nal = N[C@@H](Cc1ccc2ccccc2c1)C(=O)O; d2Nal = N[C@H](Cc1ccc2ccccc2c1)C(=O)O; εLys = N[C@@H](CCCCN[*:1])C(=O)[*:2]; NMeF = CN[C@@H](Cc1ccccc1)C(=O)O; hCys = N[C@@H](CCS)C(=O)O; X2 = O=C(C[*:1])[*:2]; Acm = CC(=O)NC*

Target: T1, somatostatin receptors (Rattus norvegicus, UniProt P30680)
T1 construct: endogenous in cells; host or cells: AR42J rat pancreatic tumor cell membranes
T1 sequence (P30680 whole entry): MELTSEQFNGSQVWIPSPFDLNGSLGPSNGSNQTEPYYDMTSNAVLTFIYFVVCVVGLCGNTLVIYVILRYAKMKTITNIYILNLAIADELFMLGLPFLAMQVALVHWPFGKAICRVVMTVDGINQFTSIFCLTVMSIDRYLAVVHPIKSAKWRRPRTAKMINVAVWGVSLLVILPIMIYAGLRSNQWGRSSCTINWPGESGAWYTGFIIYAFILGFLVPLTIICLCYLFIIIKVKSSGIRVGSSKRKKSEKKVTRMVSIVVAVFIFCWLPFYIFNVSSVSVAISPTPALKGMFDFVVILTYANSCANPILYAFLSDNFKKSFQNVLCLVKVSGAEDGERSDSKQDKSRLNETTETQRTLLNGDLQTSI
Assay: Inhibition of binding of (125I-Tyr11)somatostatin-14 to AR42J rat pancreatic tumor cell membranes
Conditions: displacement of (125I-Tyr11)somatostatin-14, AR42J cell membranes
Procedure: Inhibition of Binding of (^125 I-Tyr^11)somatostatin-14 to AR42J Rat Pancreatic Tumor Cell Membranes
The rat pancreatic tumor cell line AR42J which expresses the somatostatin receptor was cultured in Dulbecco's minimal essential media (DMEM) supplemented with 10% fetal bovine serum (FBS) and 8 mM glutamine in a humdified 5% CO2 atmosphere at 37° C. in T-flasks. Harvested cells were homogenized in cold 50 mM Tris-HCl buffer (pH 7.4) and the homogenate then centrifuged at 39,000g for 10 min at 4° C. Pellets were washed once with buffer and then resuspended in an ice-cold solution of 10mM Tris-HCl (pH 7.4). Equal aliquots of this cell membrane preparation were incubated with (^125 I-Tyr^11)somatostatin-14 (at a final concentration of 0.5nM and 750,000cpm/mL, at a specific activity of 2000Ci/mmol, Amersham, Arlington Heights, Ill.) and peptide at a final concentration of from 10^-11 M to 10^-6 M in a solution of 50 mM HEPES (pH 7.4) containing 1% bovine serum albumin (BSA), 5 mM MgCl2, Trasylol (200,000 International Units), bacitracin (0.02 mg/mL) and phenylmethylsulfonylfluoride (0.02 mg/mL) for 25 min at 30° C. Using a filtration manifold, this mixture was filtered through a polyethyleneimine-washed GC/F filter (Whatman, Maidstone, England), and the residue remaining on the filter washed thrice with 5 mL cold HEPES buffer. The filter and a sample of the filter washings were then counted in a gamma counter. To assess non-specific binding, the assay was performed in the presence of unlabeled somatostatin-14 at 200 nM. Data analysis including Hill plots of the data provided inhibition constants (see Bylund & Yamamura, "Methods of receptor binding", in Methods in Neurotransmitter Receptor Analysis, Yamamura et al., eds., Raven Press: New York, 1990).

Compound	Ki ((Re=O)-complexed peptides)	Ki (peptides not metal-complexed)
C[C@@H](O)[C@H](NC(=O)[C@H](Cc1ccccc1)NC(=O)[C@@H](NC(=O)[C@H](CCCCN)NC(=O)[C@@H](Cc1c[nH]c2ccccc12)NC(=O)[C@H](Cc1ccc(O)cc1)NC(=O)[C@H](Cc1ccc(Cl)cc1)NC(=O)[C@@H](Cc1ccccc1)NC(=O)C(=O)[C@@H](O)[C@H](O)[C@@H](O)CO)[C@@H](C)O)C(=O)NCCCC[C@H](N)C(=O)NCC(=O)N[C@@H](CS)C(N)=O [(2-ketogulonyl)FD.Cpa.YWD KTFT(ε-K)GC.amide] (X1-[dF][Phe(4-Cl)]Y[dW]KTFT[εLys]GC-NH2)	3.7 nM	2.7 nM
CC(C)[C@H](NC(=O)[C@H](CCCCN)NC(=O)[C@@H](Cc1c[nH]c2ccccc12)NC(=O)[C@H](Cc1ccc(O)cc1)NC(=O)[C@H](CS)NC(=O)[C@@H](Cc1ccc2ccccc2c1)NC(=O)CN(CCN(CCN(CC(=O)O)CC(=O)N[C@H](Cc1ccc2ccccc2c1)C(=O)N[C@@H](CS)C(=O)N[C@@H](Cc1ccc(O)cc1)C(=O)N[C@H](Cc1c[nH]c2ccccc12)C(=O)N[C@@H](CCCCN)C(=O)N[C@H](C(=O)N[C@@H](CS)C(=O)N[C@H](C(N)=O)[C@@H](C)O)C(C)C)CC(=O)O)CC(=O)O)C(=O)N[C@@H](CS)C(=O)N[C@H](C(N)=O)[C@@H](C)O [(DTPA)(NalD.CYWD KVCT)2]		7.2 nM
C[C@@H](O)[C@H](NC(=O)[C@H](Cc1ccc2ccccc2c1)NC(=O)[C@@H](NC(=O)[C@H](CCCCN)NC(=O)[C@@H](Cc1c[nH]c2ccccc12)NC(=O)[C@H](Cc1ccc(O)cc1)NC(=O)[C@H](Cc1ccc(Cl)cc1)NC(=O)[C@@H](Cc1ccc2ccccc2c1)NC(=O)CN(CCN(CCN(CC(=O)O)CC(=O)O)CC(=O)O)CC(=O)O)[C@@H](C)O)C(=O)NCCCC[C@H](N)C(=O)NCC(=O)N[C@@H](CS)C(=O)N[C@@H](CCCCN)C(=O)N[C@@H](CCCCN)C(N)=O [(DTPA)NalD.Cpa.YWD KT.Nal.T(ε-K)GCKK.amide] ({DTPA}-[d2Nal][Phe(4-Cl)]Y[dW]KT[2Nal]T[εLys]GCKK-NH2)		2 nM
CC(=O)NCSC[C@H](NC(=O)CNC(=O)[C@H](CSCNC(C)=O)NC(=O)[C@@H](NC(=O)[C@H](Cc1ccccc1)NC(=O)[C@@H](NC(=O)[C@H](CCCCN)NC(=O)[C@@H](Cc1c[nH]c2ccccc12)NC(=O)[C@H](Cc1ccc(O)cc1)NC(=O)[C@H](Cc1ccc(Cl)cc1)NC(=O)[C@@H](Cc1ccc2ccccc2c1)NC(=O)CN(CCN(CCN(CC(=O)O)CC(=O)O)CC(=O)O)CC(=O)O)[C@@H](C)O)[C@@H](C)O)C(N)=O [(DTPA)NalD.Cpa.YWD KTFTCAcm GCAcm.amide] ({DTPA}-[d2Nal][Phe(4-Cl)]Y[dW]KTFTC(Acm)GC(Acm)-NH2)	3.1 nM	
C[C@H](N)C(=O)N[C@@H](CCCCN)C(=O)N[C@@H](CS)C(=O)NCC(=O)NCC(=O)NCC(=O)N[C@H](Cc1ccccc1)C(=O)N[C@@H](Cc1ccc(Cl)cc1)C(=O)N[C@@H](Cc1ccc(O)cc1)C(=O)N[C@H](Cc1c[nH]c2ccccc12)C(=O)N[C@@H](CCCCN)C(=O)N[C@H](C(=O)N[C@@H](Cc1ccccc1)C(=O)N[C@H](C(N)=O)[C@@H](C)O)[C@@H](C)O [AKCGGGFD.Cpa.YWD KTFT.amide] (H-AKCGGG[dF][Phe(4-Cl)]Y[dW]KTFT-NH2)		1.4 nM
C[C@@H](O)[C@H](NC(=O)[C@H](Cc1ccccc1)NC(=O)[C@@H](NC(=O)[C@H](CCCCN)NC(=O)[C@@H](Cc1c[nH]c2ccccc12)NC(=O)[C@H](Cc1ccc(O)cc1)NC(=O)[C@H](Cc1ccc(Cl)cc1)NC(=O)[C@H](N)Cc1ccccc1)[C@@H](C)O)C(=O)N[C@@H](CS)C(=O)NCC(=O)N[C@@H](CS)C(N)=O [FD.Cpa.YWD KTFTCGC.amide] (H-[dF][Phe(4-Cl)]Y[dW]KTFTCGC-NH2)		4.8 nM
CC(C)[C@@H]1NC(=O)[C@H](CCCCN)NC(=O)[C@@H](Cc2c[nH]c3ccccc23)NC(=O)[C@H](Cc2ccc(O)cc2)NC(=O)[C@H](Cc2ccccc2)N(C)C(=O)[C@H](CCSCC(=O)NCC(=O)NCC(=O)N[C@@H](CS)C(=O)N[C@@H](CCCCN)C(=O)N[C@@H](CCCCN)C(N)=O)NC1=O [cyclo(N-Me)FYWD KV.Hcy(CH2 CO.GGCKK.amide)] (I: cyclo([NMeF]Y[dW]KV[hCys]) / II: GGCKK-NH2; linker I:6-II:N via X2)		0.26 nM
(DTPA).Aca.FD.Cpa.YWD KTFT(ε-K)GC.amide	8.2 nM	
(DTPA).FD.Cpa.YWD KTFT(ε-K)GC.amide	7.9 nM	
(DTPA).NalD.Cpa.YWD KTFT(ε-K)GC.amide	11 nM	
Ac.DD DFD.Cpa.YWD KTFT(ε-K)GCKK.amide	1.4 nM	
Ac.FD FYWD KTFTGGG(ε-K)KC.amide	6.1 nM	
DD DFD.Cpa.YWD KTFT(ε-K)GCKK.amide	0.5 nM	
FD.Cpa.YWD KTC(ε-K)CGC.amide	0.37 nM	
FD.Cpa.YWD KTC(ε-K)GC.amide	0.36 nM	
FD.Cpa.YWD KTC(ε-K)GCKK.amide	0.13 nM	
Hca.NalD.Cpa.YWD KTFT(ε-K)GCKK, amide	8 nM	
KD KK.NalD.Cpa.YWD KTFT(ε-K)GCDD.amide	1.6 nM	
KD KK.NalD.Cpa.YWD KTFT(ε-K)GCDDD.amide	1.5 nM	
KD KKK.NalD.Cpa.YWD KTFT(ε-K)GCKDKD.amide		4.9 nM
KD KKKFD.Cpa.YWD KTF.Nal.(ε-K)GCDDDD.amide	8.1 nM	
KDKKK.NalD.Cpa.YWD KTFT(ε-K)GCKDKD.amide	3.8 nM	
NalD.Cpa.YWD KTFT(ε-K)GCKK.amide	2.2 nM	
